ChEMBL document CHEMBL3046787, “Molecular modeling studies of some substituted chalcone derivatives as cysteine protease inhibitors” (Med Chem Res, 2012)

System: Plasmodium falciparum
Test: Inhibition of Plasmodium falciparum W2

SMILES | IC50 (read-out: IC50) | IC50 (read-out: pIC50 (converted))
COc1cccc(OC)c1/C=C/C(=O)c1cccc2ccccc12 | 3100 nM | 3100 nM
O=C(/C=C/c1ccc(F)cc1F)c1cc2ccccc2nc1Cl | 1000 nM | 1000 nM
COc1ccc(OC)c(/C=C/C(=O)c2ccccn2)c1 | 1400 nM | 1400 nM
O=C(/C=C/c1cccnc1)c1cc2ccccc2nc1Cl | 710 nM | 710 nM
COc1ccc(/C=C/C(=O)c2ccncc2)c(OC)c1OC | 3200 nM | 3200 nM
COc1ccc(/C=C/C(=O)c2ccccn2)cc1 | 12000 nM | 12000 nM
COc1cccc(OC)c1/C=C/C(=O)c1ccc2ccccc2c1 | 3300 nM | 3300 nM
COc1ccc(/C=C/C(=O)c2cccnc2)cc1 | 10000 nM | 10000 nM
O=C(/C=C/c1ccc(-n2ccnc2)cc1)c1ccc(Cl)cc1Cl | 1180 nM | 1180 nM
COc1ccc(OC)c(/C=C/C(=O)c2ccc(Cl)cc2Cl)c1 | 750 nM | 750 nM
COc1ccc(OC)c(/C=C/C(=O)c2cccc(Cl)c2Cl)c1 | 920 nM | 920 nM
COc1ccc(/C=C/C(=O)c2ccc(F)cc2F)c(OC)c1 | 1900 nM | 1900 nM
COc1ccc(/C=C/C(=O)c2cccnc2)c(OC)c1OC | 3900 nM | 3900 nM
COc1ccc(C(=O)/C=C/c2ccc(Cl)cc2Cl)c(OC)c1 | 3800 nM | 3800 nM
COc1ccc(/C=C/C(=O)c2ccc3ccccc3c2)cc1OC | 7700 nM | 7690 nM
COc1ccc(/C=C/C(=O)c2ccc(F)c(F)c2)c(OC)c1 | 2090 nM | 2090 nM
COc1ccc(/C=C/C(=O)c2cccc3ccccc23)c(OC)c1 | 4600 nM | 4600 nM
COc1ccc(/C=C/C(=O)c2ccccn2)c(OC)c1OC | 2300 nM | 2300 nM
COc1cc(/C=C/C(=O)c2cccc3ccccc23)cc(OC)c1OC | 4800 nM | 4800 nM
COc1ccc(/C=C/C(=O)c2ccc(C(F)(F)F)cc2)c(OC)c1 | 750 nM | 750 nM
COc1ccc(/C=C/C(=O)c2cccnc2)c(OC)c1 | 2700 nM | 2700 nM

SMILES | IC50 (read-out: IC50) | IC50 (read-out: pIC50 (converted))
O=C(/C=C/c1ccc(Cl)c(Cl)c1)c1ccnc2ccccc12 | 800 nM | 800 nM
COc1cc(/C=C/C(=O)c2cccc3ccccc23)cc(OC)c1 | 4300 nM | 4300 nM
COc1ccc(/C=C/C(=O)c2cc3ccccc3nc2Cl)cc1OC | 510 nM | 511 nM
COc1ccc(C(=O)/C=C/c2ccc(F)cc2F)c(OC)c1 | 11100 nM | 11100 nM
COc1ccc(OC)c(/C=C/C(=O)c2ccc3ccccc3c2)c1 | 5000 nM | 5000 nM
COc1cc(/C=C/C(=O)c2ccc3ccccc3c2)cc(OC)c1 | 9500 nM | 9510 nM
COc1ccc(/C=C/C(=O)c2cccc(Cl)c2Cl)c(OC)c1 | 1380 nM | 1380 nM
COc1ccc(/C=C/C(=O)c2cc3ccccc3nc2Cl)c(OC)c1 | 1000 nM | 1000 nM
COc1cc(/C=C/C(=O)c2ccc3ccccc3c2)cc(OC)c1OC | 6000 nM | 6000 nM
COc1ccc(/C=C/C(=O)c2cccc3ccccc23)cc1 | 10000 nM | 10000 nM
COc1ccc(/C=C/C(=O)c2cccc(Cl)c2Cl)cc1OC | 1140 nM | 1140 nM
COc1ccc(/C=C/C(=O)c2cccc3ccccc23)cc1OC | 5000 nM | 5000 nM
COc1ccc(OC)c(/C=C/C(=O)c2cccc3ccccc23)c1 | 2800 nM | 2800 nM
COc1ccc(/C=C/C(=O)c2cccc3ccccc23)c(OC)c1OC | 5800 nM | 5790 nM
COc1ccc(/C=C/C(=O)c2ccncc2)cc1 | 12000 nM | 12000 nM
COc1ccc(/C=C/C(=O)c2ccc(Cl)cc2Cl)c(OC)c1 | 900 nM | 899 nM
COc1ccc(/C=C/C(=O)c2ccc(Cl)cc2Cl)c(OC)c1OC | 360 nM | 360 nM
COc1ccc(/C=C/C(=O)c2ccccn2)c(OC)c1 | 1700 nM | 1700 nM
O=C(/C=C/c1cc(Cl)ccc1Cl)c1ccnc2ccccc12 | 230 nM | 230 nM
COc1cccc(OC)c1/C=C/C(=O)c1ccc(Cl)cc1 | 770 nM | 769 nM
